US4272437A, “Antibacterial agents, and 4-thio azetidinone intermediates” (priority 1979, dated 1981)
In brackets after ≈: the same amount, converted by molar mass. Like-named read-outs stand apart in the source and are kept apart here.

Legend:
[1] = tested on: E. coli A-20341-1; assay: MIC, tube dilution, Escherichia coli A20341-1; assay type: cell-based; conditions: overnight 37° C.; for MIC: Escherichia coli, A203411, E. coli A20341-1, read-out: Minimum Inhibitory Concentration (M.I.C.)
Description: (§1) Representative compounds of the present invention were subjected to in vitro antibiotic screening against a variety of microorganisms.

[2] = tested on: E. coli A-15119; assay: MIC, tube dilution, Escherichia coli A15119; assay type: cell-based; conditions: overnight 37° C.; for MIC: Escherichia coli, A15119, E. coli A15119, read-out: Minimum Inhibitory Concentration (M.I.C.)
Description: as §1

[3] = tested on: Staph. aureus A-9537 and 50% serum; assay: MIC, tube dilution, Staph. aureus A9537 + 50% serum; assay type: cell-based, Staphylococcus aureus; conditions: overnight 37° C.; for MIC: Staphylococcus aureus, read-out: Minimum Inhibitory Concentration (M.I.C.)
Description: as §1

[4] = tested on: Staph. aureus (Pen-Res) A-9606; assay: MIC, tube dilution, Staphylococcus aureus A9606 (Pen-Res); assay type: cell-based; conditions: Staph. aureus A9606 (Pen-Res), overnight 37° C.; for MIC: Staphylococcus aureus, read-out: Minimum Inhibitory Concentration (M.I.C.)
Description: as §1

[5] = tested on: Ser. marcescens A-20019; assay: MIC, tube dilution, Serratia marcescens A20019; assay type: cell-based; conditions: overnight 37° C.; for MIC: Serratia marcescens, A20019, Serratia marcescens A20019, read-out: Minimum Inhibitory Concentration (M.I.C.)
Description: as §1

[6] = tested on: Proteus vulgaris A21559; assay: MIC, tube dilution, Proteus vulgaris A21559; assay type: cell-based; conditions: overnight 37° C.; for MIC: Proteus vulgaris, A21559, Proteus vulgaris A21559, read-out: Minimum Inhibitory Concentration (M.I.C.)
Description: as §1

[7] = tested on: Ent. cloacae A-9659; assay: MIC, tube dilution, Enterobacter cloacae A9659; assay type: cell-based; conditions: overnight 37° C.; for MIC: Enterobacter cloacae, A9659, Enterobacter cloacae A9659, read-out: Minimum Inhibitory Concentration (M.I.C.)
Description: as §1

[8] = tested on: Staph. aureus A-9537; assay: MIC, tube dilution, Staphylococcus aureus A9537; assay type: cell-based; conditions: overnight 37° C., Nutrient Broth; for MIC: Staphylococcus aureus, A9537, Staph. aureus A9537, read-out: Minimum Inhibitory Concentration (M.I.C.)
Description: as §1

[9] = tested on: Ps. aeruginosa A-9843A; assay: MIC, tube dilution, Pseudomonas aeruginosa A9843A; assay type: cell-based; conditions: overnight 37° C.; for MIC: Pseudomonas aeruginosa, A9843A, read-out: Minimum Inhibitory Concentration (M.I.C.), Pseudomonas aeruginosa A9843A
Description: as §1

[10] = tested on: Str. faecalis A-20688; assay: MIC, tube dilution, Streptococcus faecalis A20688; assay type: cell-based; conditions: overnight 37° C.; for MIC: Enterococcus faecalis, A20688, Str. faecalis A20688, read-out: Minimum Inhibitory Concentration (M.I.C.)
Description: as §1

[11] = tested on: Proteus rettgeri A21203; assay: MIC, tube dilution, Proteus rettgeri A21203; assay type: cell-based; conditions: overnight 37° C.; for MIC: Providencia rettgeri, A21203, Proteus rettgeri A21203, read-out: Minimum Inhibitory Concentration (M.I.C.)
Description: as §1

[12] = tested on: Ent. cloacae A-9656; assay: MIC, tube dilution, Enterobacter cloacae A9656; assay type: cell-based; conditions: overnight 37° C.; for MIC: Enterobacter cloacae, A9656, Enterobacter cloacae A9656, read-out: Minimum Inhibitory Concentration (M.I.C.)
Description: as §1

[13] = tested on: Pr. mirabilis A-9900; assay: MIC, tube dilution, Proteus mirabilis A9900; assay type: cell-based; conditions: overnight 37° C.; for MIC: Proteus mirabilis, A9900, Proteus mirabilis A9900, read-out: Minimum Inhibitory Concentration (M.I.C.)
Description: as §1

[14] = tested on: Ps. aeruginosa A-21213; assay: MIC, tube dilution, Pseudomonas aeruginosa A21213; assay type: cell-based; conditions: overnight 37° C.; for MIC: Pseudomonas aeruginosa, A21213, Pseudomonas aeruginosa A21213, read-out: Minimum Inhibitory Concentration (M.I.C.)
Description: as §1

[15] = tested on: Str. pneumoniae A-9585; assay: MIC, tube dilution, Streptococcus pneumoniae A9585; assay type: cell-based; conditions: overnight 37° C., Nutrient Broth; for MIC: Streptococcus pneumoniae, A9585, Str. pneumoniae A9585, read-out: Minimum Inhibitory Concentration (M.I.C.)
Description: as §1

[16] = tested on: Klebsiella species A20468; assay: MIC, tube dilution, Klebsiella species A20468; assay type: cell-based; conditions: Klebsiella species (K. pneumoniae) A20468, overnight 37° C.; for MIC: read-out: Minimum Inhibitory Concentration (M.I.C.)
Description: as §1

[17] = tested on: K. pneumoniae A-15130; assay: MIC, tube dilution, Klebsiella pneumoniae A15130; assay type: cell-based; conditions: overnight 37° C.; for MIC: Klebsiella pneumoniae, A15130, K. pneumoniae A15130, read-out: Minimum Inhibitory Concentration (M.I.C.)
Description: as §1

[18] = tested on: Staph. aureus (Meth-Res) A-15097; assay: MIC, tube dilution, Staphylococcus aureus A15097 (Meth-Res); assay type: cell-based; conditions: Staph. aureus A15097 (Meth-Res), overnight 37° C.; for MIC: Staphylococcus aureus, read-out: Minimum Inhibitory Concentration (M.I.C.)
Description: as §1

[19] = tested on: S. aureus A9537; assay: In vivo protection of mice, lethal infection with S. aureus A9537; conditions: IM, 2 treatments; for ED50: Staphylococcus aureus, A9537, im, read-out: PD50
Protocol: Representative compounds of the present invention were also tested in vivo in mice and their PD50 (dose of compound in mg/kg required to protect 50% of the treated mice against an otherwise lethal infection of a micro-organism) values determined with respect to the test organisms shown below.

[20] = tested on: Str. pyogenes A-9604; assay: MIC, tube dilution, Streptococcus pyogenes A9604; assay type: cell-based; conditions: overnight 37° C., Nutrient Broth; for MIC: Streptococcus pyogenes, A9604, Str. pyogenes A9604, read-out: Minimum Inhibitory Concentration (M.I.C.)
Description: as §1

[21] = tested on: Pr. morganii A-15153; assay: MIC, tube dilution, Proteus morganii A15153; assay type: cell-based; conditions: overnight 37° C.; for MIC: Morganella morganii, A15153, Proteus morganii A15153, read-out: Minimum Inhibitory Concentration (M.I.C.)
Description: as §1

Work on N#CCCC(N)C1=C(C(=O)O)N2C(=O)C[C@H]2S1 (stereo partly drawn) [Example 83, 2-(1'-Amino-3'-cyanopropyl)-penem-3-carboxylic Acid] yielded an MIC [1] of 16 µg/mL (≈ 63.2 µM), an MIC [2] of 2 µg/mL (≈ 7.9 µM) and an MIC [3] of 8 µg/mL. For the same molecule, the MIC [4] was 32 µg/mL (≈ 126 µM), the MIC [5] was 4 µg/mL (≈ 15.8 µM) and the MIC [6] was 8 µg/mL (≈ 31.6 µM). It also gave an MIC [7] of 16 µg/mL (≈ 63.2 µM), an MIC [8] of 0.5 µg/mL (≈ 1.97 µM) and an MIC [9] of 63 µg/mL (≈ 249 µM). It also gave an MIC [10] of 125 µg/mL (≈ 494 µM), an MIC [11] of 4 µg/mL (≈ 15.8 µM) and an MIC [12] of 4 µg/mL (≈ 15.8 µM). It also gave an MIC [13] of 2 µg/mL (≈ 7.9 µM), an MIC [14] of 63 µg/mL (≈ 249 µM) and an MIC [15] of 0.06 µg/mL (≈ 0.237 µM). For the same molecule, the MIC [16] was over 125 µg/mL, the MIC [17] was 8 µg/mL (≈ 31.6 µM) and the MIC [18] was over 125 µg/mL. The ED50 ([19]; 1.1 × 10^6 organisms) was 3.3 mg/kg, the MIC [20] was 0.13 µg/mL (≈ 0.513 µM) and the MIC [21] was 4 µg/mL (≈ 15.8 µM).
In the case of NC1CCC(C2=C(C(=O)O)N3C(=O)C[C@H]3S2)C1 (single isomer, unassigned) [98 isomer B, 2-(3-Aminocyclopentyl)-penem-3-carboxylic acid], the “Minimum Inhibitory Concentration (M.I.C.)” value ([1]; E. coli A20341-1) is reported as 16 µg/mL, the “Minimum Inhibitory Concentration (M.I.C.)” value ([2]; E. coli A15119) is reported as 1 µg/mL and the “Minimum Inhibitory Concentration (M.I.C.)” value [3] is reported as “.25 µg/mL”. The “Minimum Inhibitory Concentration (M.I.C.)” value [4] was over 63 µg/mL, the “Minimum Inhibitory Concentration (M.I.C.)” value ([5]; Serratia marcescens A20019) was 2 µg/mL and the “Minimum Inhibitory Concentration (M.I.C.)” value ([6]; Proteus vulgaris A21559) was 8 µg/mL. For the same molecule, the “Minimum Inhibitory Concentration (M.I.C.)” value ([7]; Enterobacter cloacae A9659) was 8 µg/mL, the “Minimum Inhibitory Concentration (M.I.C.)” value ([8]; Staph. aureus A9537) was “.03 µg/mL” and the “Minimum Inhibitory Concentration (M.I.C.)” value ([9]; Pseudomonas aeruginosa A9843A) was 63 µg/mL. The “Minimum Inhibitory Concentration (M.I.C.)” value ([10]; Str. faecalis A20688) was 8 µg/mL, the “Minimum Inhibitory Concentration (M.I.C.)” value ([11]; Proteus rettgeri A21203) was 1 µg/mL and the “Minimum Inhibitory Concentration (M.I.C.)” value ([12]; Enterobacter cloacae A9656) was 2 µg/mL. The “Minimum Inhibitory Concentration (M.I.C.)” value ([13]; Proteus mirabilis A9900) was 1 µg/mL, the “Minimum Inhibitory Concentration (M.I.C.)” value ([14]; Pseudomonas aeruginosa A21213) was over 63 µg/mL and the “Minimum Inhibitory Concentration (M.I.C.)” value ([15]; Str. pneumoniae A9585) was “.008 µg/mL”. For the same molecule, the “Minimum Inhibitory Concentration (M.I.C.)” value [16] was over 63 µg/mL, the “Minimum Inhibitory Concentration (M.I.C.)” value ([17]; K. pneumoniae A15130) was 4 µg/mL and the “Minimum Inhibitory Concentration (M.I.C.)” value [18] was over 63 µg/mL. The PD50 ([19]; 9.1 × 10^5 organisms, listed as Ex. 98 (isomer B)) was 0.12 mg/kg/treatment, the “Minimum Inhibitory Concentration (M.I.C.)” value ([20]; Str. pyogenes A9604) was “.008 µg/mL” and the “Minimum Inhibitory Concentration (M.I.C.)” value ([21]; Proteus morganii A15153) was 4 µg/mL.
CC1=C(C(=O)O)N2C(=O)[C@H]([C@@H]3COC(C)(C)O3)[C@H]2S1 (relative stereo) [Example 103, (4'R,5R,6S and 4'S,5S,6R) 6-(2',2'-Dimethyl-1',3'-dioxolan-4'-yl)-2-methylpenem-3-carboxylic Acid (Isomer C)] showed an MIC [1] of over 63 µg/mL, an MIC [2] of over 63 µg/mL and an MIC [3] of over 32 µg/mL. For the same molecule, the MIC [4] was over 63 µg/mL, the MIC [5] was over 63 µg/mL and the MIC [6] was over 63 µg/mL. It also gave an MIC [7] of over 63 µg/mL, an MIC [8] of over 63 µg/mL and an MIC [9] of 63 µg/mL (≈ 221 µM). The MIC [10] was over 63 µg/mL, the MIC [11] was over 63 µg/mL and the MIC [12] was over 63 µg/mL. For the same molecule, the MIC [13] was 63 µg/mL (≈ 221 µM), the MIC [14] was 63 µg/mL (≈ 221 µM) and the MIC [15] was 63 µg/mL (≈ 221 µM). The MIC [16] was over 63 µg/mL, the MIC [17] was over 63 µg/mL and the MIC [18] was over 63 µg/mL. It also gave an ED50 ([19]; 8 × 10^5 organisms) of over 5 mg/kg, an MIC [20] of 63 µg/mL (≈ 221 µM) and an MIC [21] of over 63 µg/mL.
